From patent US20250249110A1, “ANTIMICROBIAL PEPTIDE DERIVATIVE AND USE THEREOF” (SICHUAN UNIVERSITY, priority 2016, published 2025)
Where a SMILES comes first, the peptide text is derived from it. The star is where a group is joined. Succinyl(4-O-cholesteryl) = CC(C)CCC[C@@H](C)[C@H]1CC[C@H]2[C@@H]3CC=C4C[C@@H](OC(=O)CCC(=O)*)CC[C@]4(C)[C@H]3CC[C@]12C

Columns and labels:
dendritic cells (DC) = assay: Maturation of dendritic cells (flow cytometry); assay type: cell-based, mouse; conditions: 16 h incubation; vs NS group, statistically significant
Experimental: The maturation of dendritic cells (DC) largely determines the immune response or tolerance of the body. […] Therefore, we detected the effect of DP7-C adjuvant on dendritic cell maturation by flow cytometry.
The experimental steps are as follows: • (1) Isolate C57/BL mouse primary bone marrow cells and incubate in the induced medium containing 10 ng/ml of GM-CSF and 10 ng/ml of IL-4 for 5 days. • (2) Add the DP7-C adjuvant into DC cell culture, mix well, and incubate for 16 h. • (3) Collect the stimulated DC cells, wash them twice with PBS, re-suspend the cells in 100 μL of PBS, add 1 μL of anti-mouse CD16/CD32, and block at 4° C. for 30 min. • (4) Wash with PBS for 3 times, add 1 μg of FITC-anti-CD80, APC-anti-CD86 and PE-anti-MHC-II, incubate at room temperature for 30 min, wash PBS for 3 times and re-suspend in 200 μL of PBS for flow cytometry.

[1] = system: 293T human embryonic kidney cell line; assay type: cell-based; conditions: 293T cells, 24 h, CCK-8
Experimental: Cytotoxicity of cations is one of the important factors that restrict the application of siRNA transfection. The toxicity of DP7-C micelles to 293T human embryonic kidney cell line, a normal cell, is detected through cell survival experiments. 293T cells are laid in a 96-well plate at a density of 3×10^3 cells per well, and 100 μL of DMEM/20% FBS medium is added to each well and incubated for 24 h. In the experiment, three groups are set up, i.e. DP7-C, PEI25K and Lipofectamin2000; and each group had 10 concentration gradients of 0, 12.5, 18.75, 25, 37, 50, 75, 100, 150 and 200 μg/mL respectively. The survival of the cells was detected by the CCK-8 method. After 24 h of dosing, 10 μL of CCK-8 solution is added to each well and incubated at 37° C. for 2 h. The absorption value of each well is detected at the wavelength of 630 nm and 450 nm by a microplate reader. The standard curve is drawn and IC50 is calculated, and the average value of 6 groups of parallel experiments is taken as the final result.

[2] = system: B16 metastatic melanoma in the lung; assay: B16 mouse model of metastatic melanoma in the lung; assay type: in vivo
Experimental: In order to further characterize the application potential of DP7-C micelles in tumor therapy, we established a B16 mouse model of metastatic melanoma in the lung and used DP7-C to transmit anti-VEGF siRNA therapeutic genes for therapeutic research. • (1) On day 0, female C57 mice aged 6-8 weeks are […] inoculated with 0.1 mL of cell suspension (containing about 2.5×10^5 B16 cells). • (2) On day 3, mice are randomly divided into 4 groups, 8 mice for each group, and are labeled. • (3) Mice are injected with 7 doses of normal saline (blank control group), blank DP7-C micelle (60 μg), DP7-C/no-sense control siRNA complex (60 μg/12 μg) or DP7-C/VEGF siRNA complex (60 μg/12 μg) respectively through tail veins. • (4) On day 20, when the mice in the control group are already very weak, all the mice are killed by cervical dislocation; the tumor tissues in the lung as well as the heart, liver, spleen, lung and kidney tissues are immediately collected, weighed and analyzed. The collected heart, liver, spleen, lung and kidney tissues are analyzed by HE staining.

mouse PBMC = assay: Immune-related cytokine expression by Q-PCR after PBMC stimulation; assay type: cell-based
Experimental: In order to determine the changes of cytokines in mouse PBMC after DP7-C stimulation, the isolated mouse PBMC is diluted to 1×10^6 cells/mL and added to a 6-well plate at 2 ml/well, in which the stimulation concentration of DP7-C is 200 μg/ml and the stimulation time is 4 h. After stimulation, the cells are collected and stored in a −80° C. refrigerator. Meanwhile, in order to verify whether DP7-C can reverse LPS-induced inflammatory reaction, an experiment is set up to stimulate PBMC together with LPS: PBMC is diluted to 1×10^6 cells/ml and added to a 6-well plate at 2 mL/well in which the stimulation concentration of DP7-C is 200 μg/mL; after 1 h, stimulated by LPS for 4 h, and cells are collected and stored in −80° C. refrigerator. After all samples are collected, the following steps are performed, including centrifugation, washing, total RNA extraction, reverse transcription and real-time quantitative PCR.

[3] = system: macrophages, neutrophils and monocytes in the abdominal cavity; assay: Detection of activated immune-related cells in abdominal cavity (flow cytometry); assay type: in vivo, mouse; conditions: 24 h after 200 μL of 1 mg/mL i.p.
Experimental: Grouping: The mice are randomly divided into two groups (NS group and DP7-C group) with 5 mice in each group.
Each mouse in the DP7-C group is given 200 μL of 1 mg/mL DP7-C, while each mouse in the NS group is injected with 200 μL of normal saline. The mice of both groups are killed 24 h later. Each mouse is intraperitoneally injected with 5 mL of normal saline. By gently massaging the abdomen, the ascites in the abdominal cavity is aspirated to calculate the cell concentration and total cell count there. The lymphocyte typing of the ascites is detected by a flow cytometry, the percentage of macrophages, neutrophils and inflammatory monocytes in total cells is analyzed, and the number of macrophages, neutrophils and inflammatory monocytes is calculated according to the results of flow cytometry and the total number of cells in ascites.

multiple strains = assay: Antibacterial activity in vitro (MIC); assay type: cell-based
[4] = tail vein injection, 7 doses, day 20

Compound: CC[C@H](C)[C@H](NC(=O)[C@H](CCCNC(=N)N)NC(=O)[C@H](Cc1c[nH]c2ccccc12)NC(=O)[C@H](CCC(N)=O)NC(=O)[C@@H](NC(=O)CCC(=O)O[C@H]1CC[C@@]2(C)C(=CC[C@H]3[C@@H]4CC[C@H]([C@H](C)CCCC(C)C)[C@@]4(C)CC[C@@H]32)C1)C(C)C)C(=O)N[C@@H](CCCNC(=N)N)C(=O)N[C@H](C(=O)N[C@@H](C)C(=O)N[C@H](C(=O)N[C@H](C(=O)N[C@@H](CCCNC(=N)N)C(=O)N[C@@H](CCCCN)C(N)=O)[C@@H](C)CC)C(C)C)C(C)C [DP7-C, Chol-suc-VQWRIRVAVIRK-NH2] ({Succinyl(4-O-cholesteryl)}-VQWRIRVAVIRK-NH2)
- expression of MHC II, CD80 and CD86 (dendritic cells (DC)): increased
- IC50 [1]: exceeding 200 μg/mL
- HE staining of major organ tissues ([2]; heart, liver, spleen, kidney): no significant pathological changes
- average number of tumor nodes [2, 4]: 132±22
- average weight of lung tissue [2, 4]: 0.41 ± 0.1 g
- gene expression of IL-1β, MCP-1 and TNF-α (mouse PBMC; 200 μg/mL DP7-C together with LPS): significantly reduced
- expression of IL-1, IL-6, MCP-1, M-CSF, TNF-α and other cytokines related to immune activation (mouse PBMC; 200 μg/ml, 4 h): greatly increased
- total number of cells in the abdominal cavity [3]: increased significantly
- percentage of monocytes ([3]; abdominal cavity, NS 2.7%): 32.8%
- percentage of macrophages ([3]; abdominal cavity, NS 38.8%): 50.8%
- MIC (multiple strains): > 1024 mg/L
